From US20230000813A1, “COMPOUND FOR THE TREATMENT OF BOVINE OR SWINE RESPIRATORY DISEASE” (Intervet Inc., priority 2016, published 2023)
Converted amounts (≈) assume the structure as drawn. “And” between values parts separate entries of the source, which are not always exact repeats. Identical values can stand only once. Marks after values point to notes of the source that are not given here.

Legend:
[1] = system: Pasteurella multocida PM 10775 (080130003051, BRD field isolate); experiment: MIC, broth-microdilution (CLSI VET01-A4); assay type: cell-based
Procedure, shortened: (§1)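 Compounds were tested in microdilution trays as twofold serial dilutions. The MIC was taken as the lowest concentration with no turbidity visible to the unaided eye, and results were interpreted per CLSI VET01-S3.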

[2] = system: Pasteurella multocida PM 6267 (P 2225 (L386), reference strain, mouse infection strain); experiment: MIC, broth-microdilution (CLSI VET01-A4); assay type: cell-based
Procedure, shortened: as §1

[3] = system: 15 isolates of H. parasuis; experiment: MIC50/MIC90, agar-dilution method (GC agar base); assay type: cell-based; conditions: Haemophilus parasuis
Experimental: The in vitro activity of 3 representative compounds of this invention against 15 isolates of H. parasuis was determined. All strains were isolated from the respiratory tract of swine in different European countries The MICs for all isolates were determined by using the agar-dilution method according to CLSI document VET01-A4 [1]with the following modification: GC agar base was used instead of Mueller-Hinton agar base for the preparation of the agar-dilution plates. Results were interpreted according to the CLSI document VET01-S3.

[4] = Plasma and tissue concentrations and pharmacokinetics in infected calves (Example 8); assay type: in vivo, Holstein black pied cattle calves
Experimental: Three animals each were treated one hour after infection by subcutaneous (SC) administration of Compound 329 in an aqueous 30% (w/v) Captisol® solution for injection at a dose of 10 mg/kg BW.
Food consumption was measured. Single individual blood samples were collected from the 12 animals at the following time points: D-1 (predose), 30 minutes, 2, 4, 6, 24 h and at D2 (ca. 45 h) after administration. After the day 2 blood sampling, the infected cattle were slaughtered. The lungs were weighted. Lung states and lung scores were observed morphologically.
At necropsy from animals treated with test items or the positive control, samples of epithelial lining fluid (ELF), lung tissue, and additionally tissue of liver and kidney were collected. From each lung two bacteriological swaps were taken from the left and right bronchus.
Epithelial lining fluid was collected by inserting sterile paper strips caudally behind the tracheal bifurcation directly onto the bronchial mucous membrane in the left and right bronchus and allowed to moisten with bronchial fluid. The paper strip was left in place (resting on the bronchial mucosa) for approximately 1 minute before being placed back into the plastic container.
From each lung two tissue samples were collected by clipping from at least two locations, one from morphologically unchanged tissue, one from the edge of pathomorphologically changed areas.
Plasma, ELF, lung tissue and additional tissue samples were analyzed for concentrations of Compound 329 and Enrofloxacin/Ciprofloxacin respectively using a HPLC-MS/MS method.
An analysis of the measured plasma concentrations of C.

[5] = system: M. haemolytica; experiment: Mannheimia haemolytica cattle lung infection model, efficacy (Example 10); assay type: in vivo, cattle calves; conditions: for Food consumption, cumulated for all animals in the group: 3 calves; for Bacteriological Cure (x of n) / Survival (x of n): calves infected with M. haemolytica, SC, single
Experimental: Unless otherwise described the study was conducted as described in Clinical Example 8
Calves were infected via intratracheal instillation of appr. 300 mL of M. haemolytica PBS suspension containing approximately 4×10^9 CFU M. haemolytica in late log phase on Day 0.
One hour later three animals each were treated with 10 mg/kg of Compound 231(referred to as C. 231) (80 mg/mL in 10% Poloxamer 188), or 10 mg/kg or 5 mg/kg Compound 329 (referred to as C. 329) (150 mg/mL in 35% Cavitron).
The following clinical findings were recorded: The general behavior scores of the animals before (DO am) and after infection with M. haemolytica in the different treated and control groups are indicated in FIG. 8-1: 0=normal; 1=slightly depressive, 2=moderately depressive, 3=highly depressive, 4=recumbency.
The following pathomorphological findings after section on Day 2 were recorded: After measuring the body weight and the lung weight the Lung body mass ratio was calculated as shown in FIG. 8-2. A healthy animal has a lung body mass ration around 1.7 or lower. The area percentage of lung consolidations compared to the total lung tissue and the lung score determined that is a combined score of such percentage of lung consoldiations and the grade. For the “grade” the degree of lung consolidation score was graded from 0 to 3 for each of eight lung lobes: 0 no visible changes, 1 low graded colour changes or induration, 2 medium graded induration, 3 high graded induration, hepatisation, necrosis.
The geometrical means (CFU/g tissue) of bacteriological re-isolations of Mannheimia haemolytica from lung tissue are illustrated in FIG. 8-4.

[6] = SC single 10 mg/kg in 30% Captisol, individual animals and mean, 10 mg/kg
[7] = plasma, SC 10 mg/kg, mean, Phoenix WinNonlin

Structure (SMILES): CC(C)(N)C(NC(=O)c1ccc(C#Cc2ccc(CNC3CC3)cc2)cc1)C(=O)NO (stereo not drawn) [C. 329]
- MIC PM 10775 ([1]; Pasteurella multocida PM 10775): <=0.1 μM
- MIC ([1]; strain PM 10775): ≤0.016 µg/mL
- MIC PM 6267 ([2]; Pasteurella multocida PM 6267): <=0.1 μM
- MIC ([2]; strain PM 6267): ≤0.016 µg/mL
- MIC50 [3]: 2 µg/mL (≈ 4.76 µM)
- MIC90 [3]: 4 µg/mL (≈ 9.51 µM)
- compound concentrations in the tissue samples ([4]; SC 10 mg/kg, compared with plasma, in words): above the plasma concentration
- detection in plasma and section tissue samples ([4]; SC 10 mg/kg, in words): detected at high concentrations
- Concentration, Plasma 0.5 h [4, 6]: 2340 ng/mL and 1520 ng/mL and 1280 ng/mL
- Concentration, Plasma 2 h [4, 6]: 1930 ng/mL and 1410 ng/mL and 2330 ng/mL
- Concentration, Plasma 4 h [4, 6]: 1200 ng/mL and 856 ng/mL and 1310 ng/mL
- Concentration, Plasma 6 h [4, 6]: 692 ng/mL and 928 ng/mL and 718 ng/mL
- Concentration, Plasma 24 h [4, 6]: 146 ng/mL and 187 ng/mL and 176 ng/mL
- Concentration, Plasma 48 h [4, 6]: 60.5 ng/mL and 57.4 ng/mL and 85.2 ng/mL
- Concentration, Tissue (48 h) Kidney [4, 6]: 22800 ng/mL and 25500 ng/mL and 17100 ng/mL
- Concentration, Tissue (48 h) Liver [4, 6]: 7760 ng/mL and 7850 ng/mL and 5130 ng/mL
- Concentration, Tissue (48 h) Lung [4, 6]: 8290 ng/mL and 9410 ng/mL and 7570 ng/mL
- Concentration, Tissue (48 h) ELF ([4]; epithelial lining fluid, SC single 10 mg/kg in 30% Captisol, individual animals and mean, 10 mg/kg): 320 ng/mL and 356 ng/mL and 1370 ng/mL
- AUClast [4, 7]: 19434 ng·h/mL
- Cmax [4, 7]: 2063 ng/mL
- HL_Lambda_z (Half life time) [4, 7]: 11.1 h
- MRTlast (Mean retention time till last measured value) [4, 7]: 9.7 h
- Tmax [4, 7]: 1.0 h
- Vz_F_obs [4, 7]: 7.8 L/kg
- Food consumption, cumulated for all animals in the group ([5]; D 0 am, after infection and treatment, 5 mg/kg): 1213 g
- Food consumption, cumulated for all animals in the group ([5]; D 0 am, after infection and treatment, 10 mg/kg): 1800** g
- Food consumption, cumulated for all animals in the group ([5]; D 0 pm, 5 mg/kg): 4800 g
- Food consumption, cumulated for all animals in the group ([5]; D 0 pm, 10 mg/kg): 4800 g
- Food consumption, cumulated for all animals in the group ([5]; D +1 am, 5 mg/kg): 4800 g
- Food consumption, cumulated for all animals in the group ([5]; D +1 am, 10 mg/kg): 4800 g
- Food consumption, cumulated for all animals in the group ([5]; D +1 pm, 5 mg/kg): 4800 g
- Food consumption, cumulated for all animals in the group ([5]; D +1 pm, 10 mg/kg): 4800 g
- Food consumption, cumulated for all animals in the group ([5]; D −1 (before infection), 5 mg/kg): 4800 g
- Food consumption, cumulated for all animals in the group ([5]; D −1 (before infection), 10 mg/kg): 4800 g
- Bacteriological Cure (x of n) ([5]; 5 mg/kg BW): 1/3
- Survival (x of n) ([5]; 5 mg/kg BW): 3/3
- Bacteriological Cure (x of n) ([5]; 10 mg/kg BW): 3/3
- Survival (x of n) ([5]; 10 mg/kg BW): 3/3
- efficacy against an artificial lung infection with M. haemolytica in the calf ([5]; tested dosages 10 mg/kg for C 231 and 10 mg/kg and 5 mg/kg for C 329, conclusion in words): effective
